The subject of one data set is mice. To be noted: male mice; literature (Meng-Loew, Diuretika, 1974); cited from earlier work.
The subject of data set [1] is rats with renovascular high blood pressure. Put plainly: Renovascular high blood pressure in rats. The data set is classed as in vivo, rat (SIV 50 strain). Details: average blood pressure: unit: mmHg. The text has this:
The antihypertensive properties were investigated in rats which, after experimental ligature of the kidney blood flow, had developed a renovascular high blood pressure. The experimental animals used were male rats of the SIV 50 strain which, under ether narcosis, had been monolaterally nephrectomised and the contralateral renal arteries of which had been stenosed 2 days later with the help of silver clips. After 6 to 8 weeks, these animals developed a high blood pressure. The blood pressure measurement took place bloodlessly on the root of the tail of the animals. The test substances were administered intragastrally once daily as tragacanth slurry suspensions for 33 days.

Data set [2] deals with male and female rats of the SIV 50 strain. Description: Acute toxicity in rats (intragastral, 7 days observation, LD50 by Weber's probit analysis). The data set is classed as in vivo, rat (SIV 50 strain). To be noted: rat. As to the method:
(§1) The experimental animals used were male and female rats of the SIV 50 strain with a body weight of 115 to 170 g and of 100 to 160 g, respectively. All the animals were fasted for 20 hours before the commencement of the experiments, water was available ad libitum. There were 10 animals in each dosage group. The test substances were administered intragastrally with a metal probe in the form of 1% tragacanth slurry suspensions (4 ml/100 g of body weight).
(§2) The animals were observed over a period of time of 7 days. For the calculation of the LD50 with the related confidence limits, use was made of Weber's probit analysis (see Grundriss der Biologischen Statistik, pub. Gustav Fischer Verlag, Jena, 1-72).

Assay in data set [3]: as above
It is filed as in vivo, rat (SIV 50 strain). The following applies: rat, in vivo, po. As to the method: as §1, §2

Another data set concerns awake rats (diuresis). Put plainly: Diuresis in awake rats (urine volume within the first 4 hours). The data set is classed as in vivo, rat (SIV 50 strain). The following applies: intragastral, urine volume in 4 hours, FIG. 2. As to the method: The experimental animals used were male rats of the SIV 50 strain which were kept under constant conditions. Feed was removed 36 hours before the commencement of the experiments but water was available until just before the commencement of the experiment. The test substances were administered intragastrally as suspensions in 1% tragacanth slurry which has been prepared with a 0.2% sodium chloride solution (1 ml/100 g body weight). In addition, the animals were given intragastrally 4 ml/100 g body weight a 0.2% sodium chloride solution. The animals were kept individually in metabolic cages in order to determine the urine volumes within the first 4 hours.

The conditions of data set [4]: cited from earlier work.
Data set [5] is described as follows: Racemization of (+)-ozolinone in 0.1N hydrochloric acid and in chloroform. It is filed as physicochemical. To be noted: read-out: degree of racemization. As to the method:
Esterification of the known, optically-active (+)-(3-methyl-4-oxo-5N-piperidinothiazolidin-2-ylidene)-acetic acid [(+)-ozolinone (see Federal Republic of Germany Patent Specification No. 26 58 858)] also cannot be carried out with agents which can be used on a large scale because it racemizes under the esterification conditions. Thus, for example, (+)-ozolinone racemizes to an extent of 15% in 0.1N hydrochloric acid in less than 1 hour. Even in chloroform, in the same period of time, the degree of racemization which occurs is about 10%.

Where [6] appears, read: 100 mg/kg i.g., 2nd day after treatment.
Where [7] appears, read: 100 mg/kg i.g., 20th day of treatment.
Setting [8] is: 100 mg/kg i.g., before treatment.
[9] abbreviates: 200 mg/kg i.g., 8th day after treatment.
The mark [10] stands for this setting: 200 mg/kg i.g., 10th day of treatment.
Setting [11] is: 200 mg/kg i.g., 17th day of treatment.
Where [12] appears, read: 200 mg/kg i.g., 33rd day of treatment.
Setting [13] is: 200 mg/kg i.g., before treatment.

Each structure is given as a SMILES string. Entries after “also recorded” stand apart in the source; their conditions may differ. Like-named read-outs stand apart in the source and are kept apart here. Some results are limits rather than exact numbers.

By LD50 is commonly meant the dose at which mortality reaches 50%. As for `NS(=O)(=O)c1cc2c(cc1Cl)NCNS2(=O)=O` [Compound D, 6-chloro-3,4-dihydro-2H-1,2,4-benzothiadiazine-7-sulphonamide 1,1-dioxide], in the data set on mice, the median lethal dose (LD50) was 3,080 mg/kg.

As for `CCOC(=O)C=C1SC(N2CCCCC2)C(=O)N1C` (single isomer, unassigned) [Compound B, ethyl (+)-(3-methyl-4-oxo-5N-piperidinothiazolidin-2-ylidene)acetate], the average blood pressure is reported as 190 in data set [1] (setting [6]); 164 in data set [1] (setting [7]); 189 in data set [1] (setting [8]); 182 in data set [1] (setting [9]); 159 in data set [1] (setting [10]); 150 in data set [1] (setting [11]). For the same compound, the figures for the average blood pressure in data set [1] (setting [12]) and in data set [1] (setting [13]) were 156 and 185, respectively. The “antihypertensive action (in words)” value in data set [1] (rats with renovascular high blood pressure) was “possesses the strongest antihypertensive action and that this effect is dosage dependent”. Also, the “acute toxicity (in words)” value in data set [2] is “more toxic than Compound A; also recorded: extraordinarily nontoxic”. Besides, the values for the median lethal dose (LD50) at 168 h in data set [3] (bound stated), in data set [3] (female rat) and in data set [3] (male rat) were over 2000 mg/kg, 4230 mg/kg and 3650 mg/kg, respectively. Besides, the “diuretic action (in words)” value with awake rats (diuresis) was “diuretically inactive; also recorded: does not possess any diuretic action at all”.

As to `C=C(CC)C(=O)c1ccc(OCC(=O)O)c(Cl)c1Cl` [Compound F, [2,3-dichloro-4-(2-methylene-1-oxobutyl)phenoxy]acetic acid], the LD50 in the data set on mice is given as 600 mg/kg.

As to `CCOC(=O)C=C1SC(N2CCCCC2)C(=O)N1C` (racemic) [Compound A, ethyl (±)-(3-methyl-4-oxo-5N-piperidinothiazolidin-2-ylidene)acetate], the average blood pressure came out at 195 in data set [1] (setting [6]); 175 in data set [1] (setting [7]); 197 in data set [1] (setting [8]); 182 in data set [1] (setting [9]); 171 in data set [1] (setting [10]); 182 in data set [1] (setting [11]). Also, the average blood pressure in data set [1] (setting [12]) turned out to be 174; in data set [1] (setting [13]), 187. For the same compound, the LD50 at 168 h was found to be 10200 mg/kg in data set [3] (female rat) and 11000 mg/kg in data set [3] (male rat). For the same compound, the “diuretic action (in words)” value in the data set on awake rats (diuresis) is “diuretically effective in a dosage dependent manner”. The “antihypertensive activity (in words)” value in data set [4] (published) is “good antihypertensive activity”. Further, in data set [4] (published), the “diuretic / saluretic activity (in words)” value was “strong diuretic and saluretic properties”. Further, the “antihypertensive effect at subdiuretic doses (in words)” value in data set [4] (subdiuretic doses, DE 25 32 180) was “even at subdiuretic doses, an antihypertensive effect occurs”.

In the case of `CCOC(=O)C=C1SC(N2CCCCC2)C(=O)N1C` (single isomer, unassigned) [Compound C, ethyl (-)-(3-methyl-4-oxo-5N-piperidinothiazolidin-2-ylidene)acetate], the average blood pressure was 201 in data set [1] (setting [6]); 176 in data set [1] (setting [7]); 191 in data set [1] (setting [8]); 190 in data set [1] (setting [9]); 178 in data set [1] (setting [10]); 176 in data set [1] (setting [11]). Besides, the average blood pressure is recorded as 164 in data set [1] (setting [12]) and 192 in data set [1] (setting [13]). The “diuretic action (in words)” value in the data set with awake rats (diuresis) is listed as “diuretically effective in a dosage dependent manner”.

Consider `CN1C(=O)C(N2CCCCC2)SC1=CC(=O)O` (single isomer, unassigned; (+)) [(+)-ozolinone, (+)-(3-methyl-4-oxo-5N-piperidinothiazolidin-2-ylidene)-acetic acid], for which the degraded at 1 h in data set [5] (0.1N hydrochloric acid, less than 1 hour) was 15%; in data set [5] (chloroform, same period of time (less than 1 hour)) it was about 10%.

These data come from US4255433A, “(+)-(3-Methyl-4-oxo-5N-piperidinothiazolidin-2-ylidene)acetic acid esters, method of preparation and use” (Godecke Aktiengesellschaft, priority 1979, dated 1981).
